Key:
[1] = molecular target: AAK1 (full length human) in HEK293F cells (Homo sapiens, UniProt Q2M2I8); experiment: HEK293F Cell-Based Assay (phospho-mu2 Western blot); settings: 3 hours
Protocol: HEK293F cells were cultured in media containing DMEM (Gibco, cat. #11965), 10% FBS (SAFC Biosciences, cat. #12103C), 1×GPS (glutamine, penicillin and streptomycin). On day one, cells were plated on a 10 cm dish so that they are ˜80% confluent at time of transfection. Roughly 12 million cells were in a 10 cm dish at time of transfection. On day two, each dish was transfected with 48 ug DNA and 144 ul Lipofectamine 2000 (Invitrogen, cat. #11668-019). The DNA was comprised of a mixture (per 10 cm dish) containing 3 ug AAK1/HA/pIRES (full length human, NCBI accession no. NP_055726.2), 45 μg Flag/AP2MI/pcDNA (full length human), and 1.5 ml OPTI-MEM. The Lipofectamine 2000 is made up of a mixture (per 10 cm dish) containing 144 μl Lipofectamine 2000 and 1.5 ml OPTI-MEM. Each mixture was transferred to individual 15 ml tubes and incubated at RT for 5 minutes, and then the two mixes were combined and incubated at RT for 20 minutes. Growth media was then aspirated from each 10 cm plate and replaced with 10 ml of DMEM+10% FBS (no GPS). Finally, 3 ml DNA/Lipofectamine mix was added to each 10 cm dish and mix gently followed by incubate of plate overnight at 37° C. and 5% CO2.
On day three, compounds were diluted in 100% DMSO at 1000× final concentration, followed by 3-fold serial dilutions for a total of 5 concentrations tested. Four compounds were tested per 10 cm dish. One ul of each compound dilution was then pipetted into a deep-well, 96-well plate, followed by addition of 500 μl DMEM+0.5% FBS into each well for a 2× final concentration of each compound. Cells were resuspended in a 10 cm dish by simple pipetting (HEK293 cells come off the plate that easy at this point) and then transferred to a 50 ml conical tube and pelleted by centrifugation at 1000 rpm for 5 min. Cell pellets were then resuspended in 2.75 ml DMEM+0.5% FBS per 10 cm dish and 100 μl of cell suspension transferred into each well of 96-well TC plate. Finally, 100 μl of 2× compound diluted in DMEM+0.5% FBS was then added into wells containing cell suspension for a 1× final concentration. Plates were then incubated at 37° C. and 5% CO2 for 3 hours followed by transferring of cell suspensions from each well into 12-tube PCR strips. The PCR strips were spun in a tip rack at 1000 rpm for 5 minutes to pellet cells and media was then removed by pipetting without disturbing the cell pellet.
To prepare for Western Blot analysis, cell pellets were resuspend in 40 ul 1× LDS-PAGE sample buffer (Invitrogen, cat. # NP0008)+2× Halt phophatase and protease inhibitor cocktail (Thermo Scientific, cat. #1861284), followed by sonicating each with microtip sonicator set at 5 for 8-10 seconds. Five ul of 10× NuPage Sample Reducing Agent (with 50 mM DTT) was to each sample followed by heat denaturing at 70 C for 10 min on PCR machine. A total of 10 μl per sample was loaded into each lane of a 4-20% Tris-Glycine Criterion 26-well gel (Biorad, cat. #345-0034) for the phospho-mu2 blot and 10 μl per lane in a 4-12% Bis-Tris (+MES buffer) NuPAGE 26-well gel (Invitrogen, cat. # WG1403BX10) for the mu2 blot. For controls, 2 ng of phospho-mu2 or 20 ng mu2/Flag proteins were loaded in the last well of each gel. After SDS-PAGE, samples on each gel were transferred to PVDF membrane using an iBlot and membranes were blocked for one hour in TBST+5% milk, followed by wash 3× for 5-10 min with TBST. Criterion gels were probed with rabbit anti-phospho-mu2 (1:5000; a rabbit polyclonal antibody produced by New England Peptide and affinity purified at Lexicon) in TBST+5% BSA, whereas, NuPAGE gels were probed with mouse anti-Flag (1:500; Sigma, cat. # F1804) in TBST+5% milk, and these primary antibodies were incubated overnight at 4° C. on a rocker. […]

GST-Xa-hAAK1 = molecular target: T1, GST-Xa-hAAK1 (Homo sapiens, UniProt Q2M2I8); experiment: AAK1 Kinase Assay; format: biochemical; settings: ATP 22 μM
T1 construct: made in house
T1 sequence (Q2M2I8 whole entry): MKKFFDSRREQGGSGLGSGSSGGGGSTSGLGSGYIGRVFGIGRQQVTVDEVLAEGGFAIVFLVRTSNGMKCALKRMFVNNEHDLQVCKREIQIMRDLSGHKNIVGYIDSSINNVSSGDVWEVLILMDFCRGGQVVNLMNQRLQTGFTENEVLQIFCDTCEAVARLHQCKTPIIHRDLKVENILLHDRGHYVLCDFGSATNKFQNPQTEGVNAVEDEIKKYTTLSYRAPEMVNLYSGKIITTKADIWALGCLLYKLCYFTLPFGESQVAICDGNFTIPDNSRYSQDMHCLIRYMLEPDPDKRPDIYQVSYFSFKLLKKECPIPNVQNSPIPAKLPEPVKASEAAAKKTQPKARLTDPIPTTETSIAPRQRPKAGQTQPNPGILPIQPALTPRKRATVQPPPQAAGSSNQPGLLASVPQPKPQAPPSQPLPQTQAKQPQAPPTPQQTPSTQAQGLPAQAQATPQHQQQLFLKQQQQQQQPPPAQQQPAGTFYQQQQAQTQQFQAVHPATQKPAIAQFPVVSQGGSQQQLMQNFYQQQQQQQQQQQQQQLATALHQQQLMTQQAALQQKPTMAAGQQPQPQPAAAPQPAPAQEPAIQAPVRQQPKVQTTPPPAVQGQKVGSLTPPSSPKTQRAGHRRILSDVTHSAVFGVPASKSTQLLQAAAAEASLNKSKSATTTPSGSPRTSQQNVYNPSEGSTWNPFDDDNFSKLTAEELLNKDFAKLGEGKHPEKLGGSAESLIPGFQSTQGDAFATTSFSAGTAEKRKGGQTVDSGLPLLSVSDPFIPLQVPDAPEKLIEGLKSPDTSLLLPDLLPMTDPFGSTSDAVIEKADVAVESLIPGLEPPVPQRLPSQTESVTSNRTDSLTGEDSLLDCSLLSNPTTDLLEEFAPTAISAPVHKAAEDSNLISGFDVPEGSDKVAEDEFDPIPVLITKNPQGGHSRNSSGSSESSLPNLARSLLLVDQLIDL
Protocol: The assays were performed in U-bottom 384-well plates. The final assay volume was 30 μl prepared from 15 μl additions of enzyme and substrates (fluoresceinated peptide (5-FAM)-Aha-[…]-NH2 and ATP) and test compounds in assay buffer (10 mM Tris-HCL pH 7.4, 10 mM MgCl2, 0.01% Tween-20 and 1.0 mM DTT). The reactions were initiated by the combination of bacterially expressed, GST-Xa-hAAK1 with substrates and test compounds. The reactions were incubated at room temperature for 3 hours and terminated by adding 60 μl of 35 mM EDTA buffer to each sample. The reactions were analyzed on the Caliper LabChip 3000 (Caliper, Hopkinton, Mass.) by electrophoretic separation of the fluorescent substrate and phosphorylated product. […] The final concentration of reagents in the assays are ATP, 22 μM; (5-FAM)-Aha-[…]-NH2, 1.5 μM; GST-Xa-hAAK1, 3.5 nM; and DMSO, 1.6%. Dose response curves were generated to determine the concentration required inhibiting 50% of kinase activity (IC50). Compounds were dissolved at 10 mM in dimethylsulfoxide (DMSO) and evaluated at eleven concentrations. IC50 values were derived by non-linear regression analysis.

mice = experiment: formalin paw test; format: in vivo, mouse
Protocol: AAK1 homozygous (−/−) and their wild-type (+/+) littermates were tested using the formalin paw test in order to assess their acute and tonic nociceptive responses. For these tests, Automatic Nociception Analyzers (purchased from the Ozaki lab at University of California, San Diego) were used. A metal band was placed around the left hind paw of each mouse 30 minutes prior to testing. After the 30-minute acclimation period, 20 μl of 5% formalin is subcutaneously injected in the dorsal surface of the left hind paw. Mice were individually housed in cylindrical chambers for 45 minutes. Fresh 5% formalin solution was prepared by diluting formaldehyde (Formalde-fresh 20%, Fisher Scientific, Fair Lawn, N.J.) with distilled water. Investigatory compounds were administered 30 minutes prior to formalin injection.
A computer recorded flinches per minute, total flinches for phase I (acute phase=first 8 minutes), and total flinches for phase II (tonic phase=time between minutes 20-40) through an electromagnetic field. See Yaksh T L, Ozaki G, McCumber D, Rathbun M, Svensson C, Malkmus S, Yaksh M C. An automated flinch detecting system for use in the formalin nociceptive bioassay. J Appl Physiol., 2001; 90:2386-402.
The same test was used to confirm that the administration of an AAK1 inhibitor can also affect pain response.
A compound of the disclosure was tested in this assay at different doses. Gabapentin and pregabalin were used as positive controls. Results are shown below in Table 2, wherein the effect of gabapentin at 200 mg/kg is considered a 100% response, the % response for the other compounds is relative to the 200 mg/kg dose of gabapentin, “sc” means subcutaneous administration.

PC12 cells = settings: Kuai et al. 2011; cited from earlier work
[2] = 50 mg/kg sc, relative to gabapentin 200 mg/kg = 100% response

AAK1 (full length human) in HEK293F cells, sequence (Q2M2I8 1-822 limits assumed): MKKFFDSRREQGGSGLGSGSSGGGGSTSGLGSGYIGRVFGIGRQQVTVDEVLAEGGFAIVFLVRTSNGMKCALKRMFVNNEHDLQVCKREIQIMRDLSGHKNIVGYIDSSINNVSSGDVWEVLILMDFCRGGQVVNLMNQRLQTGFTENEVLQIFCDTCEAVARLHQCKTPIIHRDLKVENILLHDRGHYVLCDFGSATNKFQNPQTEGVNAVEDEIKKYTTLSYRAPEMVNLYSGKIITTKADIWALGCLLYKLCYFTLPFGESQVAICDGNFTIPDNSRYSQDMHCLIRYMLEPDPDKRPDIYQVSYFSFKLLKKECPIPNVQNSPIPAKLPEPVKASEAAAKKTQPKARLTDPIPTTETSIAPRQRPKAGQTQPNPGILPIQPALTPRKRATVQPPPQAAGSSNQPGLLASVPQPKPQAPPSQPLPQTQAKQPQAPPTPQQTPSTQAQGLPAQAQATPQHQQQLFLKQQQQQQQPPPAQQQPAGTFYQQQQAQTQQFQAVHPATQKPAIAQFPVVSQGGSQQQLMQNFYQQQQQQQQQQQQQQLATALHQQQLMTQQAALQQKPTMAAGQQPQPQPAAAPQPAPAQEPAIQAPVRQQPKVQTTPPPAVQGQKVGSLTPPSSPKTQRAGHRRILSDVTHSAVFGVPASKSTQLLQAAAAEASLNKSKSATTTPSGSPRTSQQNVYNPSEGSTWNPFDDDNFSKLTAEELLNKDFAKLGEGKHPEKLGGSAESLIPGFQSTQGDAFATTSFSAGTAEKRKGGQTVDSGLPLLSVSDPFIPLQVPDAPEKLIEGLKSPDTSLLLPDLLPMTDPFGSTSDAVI

| Compound | IC50 ([1]; IC50 ranges) [µM] | IC50 (GST-Xa-hAAK1; IC50 ranges) [µM] | also measured |
| --- | --- | --- | --- |
| COC(=O)Nc1cc2c(cn1)COc1c-2ccc(OCC(C)(N)CC(C)C)c1OC(F)F (racemic) [Example 76, methyl (8-((2-amino-2,4-dimethylpentyl)oxy)-7-(difluoromethoxy)-5H-chromeno[3,4-c]pyridin-2-yl)carbamate] | 0.001 to 0.01 | < 0.001 | – |
| CC(C)C[C@H](N)COc1cc2c(cc1Cl)-c1ccncc1[C@@H](C(F)(F)F)O2 (single isomer, unassigned) [Example 27b] | 0.001 to 0.01 | 0.001 to 0.01 | – |
| CC(C)C[C@H](N)COc1ccc2c(c1)OC(C(F)(F)F)c1cnccc1-2 (single isomer, unassigned; diastereomer 1) [Example 52] | 0.01 to 0.1 | 0.01 to 0.1 | – |
| CC(C)C[C@@H](N)COc1ccc2c(c1)OCc1cnccc1-2 [Compound 5, (R)-1-(5H-chromeno[3,4-c]pyridin-8-yloxy)-4-methylpentan-2-amine] | – | – | Response (mice; 10 mg/kg sc, relative to gabapentin 200 mg/kg = 100% response): 45%; Response (mice; 30 mg/kg sc, relative to gabapentin 200 mg/kg = 100% response): 88% |
| CC1Oc2cc(OCC(N)CC(C)(C)F)ccc2-c2ccncc21 (stereo not drawn) [Example 26, 4-fluoro-4-methyl-1-(5-methyl-5H-chromeno[3,4-c]pyridin-8-yloxy)pentan-2-amine] | 0.01 to 0.1 | 0.001 to 0.01 | – |
| CC(=O)Nc1cc2c(cn1)COc1cc(OC[C@](C)(N)CC(C)C)ccc1-2 [Example 46, (R)—N-(8-((2-amino-2,4-dimethylpentyl)oxy)-5H-chromeno[3,4-c]pyridin-2-yl)acetamide] | 0.001 to 0.01 | 0.001 to 0.01 | – |
| CC1Oc2cc(OCC(N)CCC(F)(F)F)ccc2-c2ccncc21 (stereo not drawn) [Example 57, 5,5,5-trifluoro-1-((5-methyl-5H-chromeno[3,4-c]pyridin-8-yl)oxy)pentan-2-amine] | 0.01 to 0.1 | 0.001 to 0.01 | – |
| CC(=O)Nc1cc2c(cn1)COc1c-2ccc(OC[C@@H](N)CC(C)C)c1OC(F)F [Example 59, (S)—N-(8-((2-amino-4-methylpentyl)oxy)-7-(difluoromethoxy)-5H-chromeno[3,4-c]pyridin-2-yl)acetamide] | < 0.001 | 0.001 to 0.01 | – |
| CC(=O)Nc1cc2c(cn1)COc1c-2ccc(OC[C@@H](N)CC(C)C)c1Cl [Example 63, (S)—N-(8-((2-amino-4-methylpentyl)oxy)-7-chloro-5H-chromeno[3,4-c]pyridin-2-yl)acetamide] | < 0.001 | < 0.001 | – |
| CC(C)C[C@H](N)COc1ccc2c(c1)OCc1cnc(NC(=O)OC(C)C)cc1-2 [Example 64, (S)-isopropyl (8-((2-amino-4-methylpentyl)oxy)-5H-chromeno[3,4-c]pyridin-2-yl)carbamate] | – | – | IC50 ([1]; numeric values): 0.015 µM; IC50 (GST-Xa-hAAK1; numeric values): 0.0052 µM |
| COC(=O)Nc1cc2c(cn1)COc1cc(OCC(C)(N)CC(C)C)ccc1-2 (stereo not drawn) [Example 67, methyl (8-((2-amino-2,4-dimethylpentyl)oxy)-5H-chromeno[3,4-c]pyridin-2-yl)carbamate] | 0.01 to 0.1 | 0.001 to 0.01 | – |
| CCC(=O)Nc1cc2c(cn1)COc1cc(OC[C@@H](N)CC(C)C)ccc1-2 [Example 73, (S)—N-(8-((2-amino-4-methylpentyl)oxy)-5H-chromeno[3,4-c]pyridin-2-yl)propionamide] | 0.01 to 0.1 | 0.001 to 0.01 | – |
| COC(=O)Nc1cc2c(cn1)COc1c-2ccc(OC[C@@H](N)CC(C)C)c1Cl [Example 74, (S)-methyl (8-((2-amino-4-methylpentyl)oxy)-7-chloro-5H-chromeno[3,4-c]pyridin-2-yl)carbamate] | < 0.001 | 0.001 to 0.01 | – |
| CCOC(=O)Nc1cc2c(cn1)COc1cc(OC[C@@H](N)CC(C)C)ccc1-2 [Example 77, (S)-ethyl (8-((2-amino-4-methylpentyl)oxy)-5H-chromeno[3,4-c]pyridin-2-yl)carbamate] | 0.001 to 0.01 | 0.001 to 0.01 | – |
| CCOC(=O)Nc1cc2c(cn1)COc1cc(OC[C@@](C)(N)CC(C)C)ccc1-2 [Example 81, (S)-ethyl (8-((2-amino-2,4-dimethylpentyl)oxy)-5H-chromeno[3,4-c]pyridin-2-yl)carbamate] | < 0.001 | < 0.001 | – |
| COC(=O)Nc1ncc2c(c1Cl)-c1cc(Cl)c(OC[C@@](C)(N)CC(C)C)cc1OC2 [Example 82, (S)-methyl (8-((2-amino-2,4-dimethylpentyl)oxy)-1,9-dichloro-5H-chromeno[3,4-c]pyridin-2-yl)carbamate] | 0.001 to 0.01 | 0.001 to 0.01 | – |
| COC(=O)[C@@]1(O)C[C@H]2O[C@]1(C)n1c3ccccc3c3c4c(c5c6ccccc6n2c5c31)C(=O)NC4 [Example K252a, K252a] | – | – | effect on Neuregulin-1 induced neurite outgrowth (PC12 cells): potentiation of Neuregulin-1 induced neurite outgrowth |
| NCC1(CC(=O)O)CCCCC1 [Gabapentin] | – | – | Response (mice; [2]): 60%; Response (mice; 200 mg/kg sc, considered a 100% response): 100% |
| CC(C)C[C@H](CN)CC(=O)O [Pregabalin] | – | – | Response (mice; [2]): 90% |

Reference: US20160222021A1, “ARYL ETHER-BASE KINASE INHIBITORS” (BRISTOL-MYERS SQUIBB COMPANY, priority 2013, published 2016)
